Among the data in US8158621B2, “Methods of treating or preventing autoimmune diseases with 2,4-pyrimidinediamine compounds” (Rigel Pharmaceuticals, Inc., priority 2002, dated 2012) are IC50 values, retold here.

Bounds are passed on as bounds.

For experiment [1], the system named is cultured human mast cells (CHMC). Briefly: CHMC low cell density ionomycin activation: tryptase assay. The experiment is classed as cell-based. Conditions: read-out: CHMC Ionomycin Tryptase.
Experiment [2] has the same test system. Briefly: CHMC low cell density IgE activation: tryptase assay. The settings on record: read-out: CHMC anti-IgE Tryptase. The class given is cell-based. In a few lines: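 CHMC resuspended in pre-warmed MT buffer at 1000-1500 cells/well (donor-dependent) and preincubated 1 hr at 37° C, then stimulated with anti-IgE for 30 min at 37° C; unstimulated wells got MT alone. Supernatant tryptase activity read with tryptase substrate after 30 min at room temperature.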

Where [3] appears, read: Homo sapiens, Mast cell, Low Density.

For the molecule `O=C(COc1cccc(Nc2ncc(F)c(Nc3ccc(N4CCOCC4)cc3)n2)c1)NC1CC1` [Compound R945360], the IC50 in experiment [1] (low cell density) is greater than 10 µM; in experiment [2] (low cell density) it was 1370 nM.

Take `CC(C)(C)OC(=O)NCc1ccc(Nc2ncc(F)c(Nc3ccc(Cl)c(Cl)c3)n2)cc1` [Compound R950458]: the IC50 turned out to be 12 µM in experiment [1] (low cell density) and 1320 nM in experiment [2] (low cell density).

Take `Cc1cc(Nc2ncc(F)c(Nc3ccc4c(c3)OCCO4)n2)cc(C)c1Cl` [Compound R927117]: the results for the IC50 in experiment [1] (low cell density) and in experiment [2] (low cell density) were greater than 10 µM and 614 nM, respectively.

Take `CNC(=O)COc1cccc(Nc2ncc(F)c(Nc3ccc(OC(C)C)nc3)n2)c1` [Compound R926962]: the IC50 in experiment [1] (low cell density) was greater than 10 µM; in experiment [2] (low cell density) it was 205 nM.

As to `Fc1cnc(Nc2ccc(N3CCOCC3)cc2)nc1NC1CC1` [Compound R945356], the IC50 in experiment [1] (low cell density) was greater than 10 µM; in experiment [2] (low cell density), 1170 nM.

For the molecule `CCOC(=O)CCn1cc2cc(Nc3ncc(F)c(Nc4ccc(Cl)c(Cl)c4)n3)ccc2n1` [Compound R935447], the IC50 in experiment [1] (low cell density) amounted to 4.7 µM; in experiment [2] (low cell density), 511 nM.

For the molecule `CN(CCO)C(=O)C1Cc2cc(Nc3ncc(F)c(Nc4ccc(OC(F)(F)F)c(Cl)c4)n3)ccc2O1` (racemic) [Compound R926960], the IC50 was greater than 10 µM in experiment [1] (low cell density) and 399 nM in experiment [2] (low cell density).

Take `CNC(=O)COc1cccc(Nc2ncc(F)c(Nc3ccc(OCc4ccccc4)c(Cl)c3)n2)c1` [Compound R926966]: the IC50 is greater than 10 µM in experiment [1] (low cell density) and 539 nM in experiment [2] (low cell density).

As for `CCN(CC)CCNC(=O)c1ccc(Nc2ncc(F)c(Nc3ccc4c(c3)C(=O)NC(=O)C4(C)C)n2)cc1` [Compound R950447], the IC50 in experiment [1] (low cell density) was greater than 10 µM; in experiment [2] (low cell density), 1420 nM.

On to `CC1(C)Oc2ccc(Nc3nc(Nc4ccc5cc[nH]c5c4)ncc3F)nc2NC1=O` [Compound R945444], for which the IC50 in experiment [1] (low cell density) was greater than 10 µM; in experiment [2] (low cell density), 43 nM.

For the molecule `COc1ccc(Nc2nc(Nc3ccc4c(cnn4CCCO)c3)ncc2F)cc1Cl` [Compound R935461], the figures for the IC50 in experiment [1] (low cell density) and in experiment [2] (low cell density) were 5.03 µM and 134 nM, respectively.

In the case of `COc1cc(Nc2ncc(F)c(Nc3ccc4c(c3)NC(=O)C(C)(C)O4)n2)cc(OC)c1` [Compound R927074], the IC50 in experiment [1] (low cell density) turned out to be 1.38 µM; in experiment [2] (low cell density), 72 nM.

For the molecule `NC(=O)c1ccc(Nc2ncc(F)c(Nc3ccc4c(c3)NC(=O)C(CCO)O4)n2)cc1` (racemic) [Compound R950454], the figures for the IC50 in experiment [1] (low cell density) and in experiment [2] (low cell density) were greater than 10 µM and 8640 nM, respectively.

In the case of `CNC(=O)n1ccc2ccc(Nc3nc(Nc4cc(OC)cc(OC)c4)ncc3F)cc21` [Compound R926995], the results for the IC50 in experiment [1] (low cell density) and in experiment [2] (low cell density) were greater than 10 µM and 9560 nM, respectively.

Regarding `CNC(=O)COc1cccc(Nc2ncc(F)c(Nc3ccc4c(c3)C(NC(=O)OC(C)(C)C)CCO4)n2)c1` (racemic) [Compound R950405], the IC50 in experiment [1] (low cell density) was greater than 10 µM; in experiment [2] (low cell density), 1360 nM.

For the molecule `COc1c(Cl)cc(Nc2ncc(F)c(Nc3ccc4c(c3)NC(=O)C(C)(C)O4)n2)cc1Cl` [Compound R927056], the IC50 amounted to 1.58 µM in experiment [1] (low cell density) and 144 nM in experiment [2] (low cell density).

Turning to `O=C(O)C1Cc2cc(Nc3ncc(F)c(Nc4ccc(OC(F)(F)F)c(Cl)c4)n3)ccc2O1` (centres unmarked) [Compound R926957], the IC50 is greater than 10 µM in experiment [1] (low cell density) and 1520 nM in experiment [2] (low cell density).

For the molecule `CNC(=O)COc1cccc(Nc2ncc(F)c(Nc3ccc(OCC(=O)NC)c(Cl)c3)n2)c1` [Compound R927043], the IC50 in experiment [1] (low cell density) was greater than 10 µM; in experiment [2] (low cell density) it was 450 nM.

For the molecule `COc1cc(Nc2nc(Nc3ccc(CNC(=O)OC(C)(C)C)cc3)ncc2F)cc(OC)c1` [Compound R950456], the IC50 in experiment [1] (low cell density) was 4.4 µM; in experiment [2] (low cell density), 3780 nM.

As to `CC(=O)Nc1cccc(Nc2nc(Nc3cc(C)cc(C)c3)ncc2F)n1` [Compound R927092], the values for the IC50 in experiment [1] (low cell density) and in experiment [2] (low cell density) were greater than 10 µM and 377 nM, respectively.

For `Nc1cccc(Nc2nc(Nc3ccc(OC(F)(F)F)c(Cl)c3)ncc2F)n1` [Compound R927081], the IC50 in experiment [1] (low cell density) is greater than 10 µM; in experiment [2] (low cell density), 2270 nM.

As for `Fc1cnc(NC2CCC2)nc1Nc1ccc(N2CCOCC2)cc1` [Compound R945358], the IC50 in experiment [1] (low cell density) is greater than 10 µM; in experiment [2] (low cell density), greater than 10000 nM.

On to `CCN(CC)CCCNc1ncc(F)c(Nc2ccc(Cl)c(Cl)c2)n1` [Compound R950470], for which the IC50 was greater than 10 µM in experiment [1] (low cell density) and 16200 nM in experiment [2] (low cell density).

Regarding `CCN(CC)CCCNc1ncc(F)c(Nc2cc(OC)cc(OC)c2)n1` [Compound R950469], the IC50 in experiment [1] (low cell density) was greater than 10 µM; in experiment [2] (low cell density), greater than 10000 nM.

As to `Fc1cnc(NC2CC2)nc1Nc1ccc(N2CCOCC2)cc1` [Compound R945357], the IC50 is greater than 10 µM in experiment [1] (low cell density) and greater than 10000 nM in experiment [2] (low cell density).

Regarding `CC1=C(Nc2ncc(F)c(Nc3ccc4c(c3)OCCO4)n2)N(c2ccccc2)CO1` [Compound R926793], the IC50 in experiment [1] (setting [3]) was greater than 10 µM; in experiment [2] (setting [3]), 3070 nM.

In the case of `COc1ccc(Nc2nc(Nc3cccc(OCC(=O)NCCO)c3)ncc2F)cc1Cl` [Compound R926963], the IC50 was greater than 10 µM in experiment [1] (low cell density) and 155 nM in experiment [2] (low cell density).

As to `COc1ccc(Nc2ncc(F)c(NC3CCC3)n2)cc1Cl` [Compound R945395], the IC50 in experiment [1] (low cell density) is greater than 10 µM; in experiment [2] (low cell density), 1140 nM.

As for `COc1cc(Nc2nc(Nc3ccc(CN)cc3)ncc2F)cc(OC)c1` [Compound R950457], the IC50 in experiment [1] (low cell density) is greater than 10 µM; in experiment [2] (low cell density) it was 3090 nM.

As to `CCOC(=O)CCn1cc2cc(Nc3ncc(F)c(Nc4ccc5c(c4)NC(=O)C(C)(C)O5)n3)ccc2n1` [Compound R935448], the values for the IC50 in experiment [1] (low cell density) and in experiment [2] (low cell density) were 4.3 µM and 111 nM, respectively.

As for `COc1c(Cl)cc(Nc2ncc(F)c(Nc3ccc4c(c3)C(N)CCO4)n2)cc1Cl` (racemic) [Compound R950424], the figures for the IC50 in experiment [1] (low cell density) and in experiment [2] (low cell density) were 4.28 µM and 236 nM, respectively.

As to `Cc1cc(Nc2ncc(F)c(Nc3ccc4c(c3)C(=O)NC(=O)C4(C)C)n2)cc(Cl)c1O` [Compound R909320], the IC50 was greater than 10 µM in experiment [1] (low cell density) and 290 nM in experiment [2] (low cell density).

As for `CNC(=O)COc1cccc(Nc2ncc(F)c(Nc3ccc(OCCO)c(Cl)c3)n2)c1` [Compound R927047], the values for the IC50 in experiment [1] (low cell density) and in experiment [2] (low cell density) were greater than 10 µM and 168 nM, respectively.

`O=C1COc2ccc(Nc3nc(Nc4cc(Cl)cc(Cl)c4)ncc3F)nc2N1` [Compound R945454]: the results for the IC50 in experiment [1] (low cell density) and in experiment [2] (low cell density) were greater than 10 µM and 20600 nM, respectively.

In the case of `Cn1cc2ccc(Nc3ncc(F)c(Nc4ccc5c(c4)NC(=O)C(C)(C)O5)n3)cc2n1` [Compound R935445], the IC50 in experiment [1] (low cell density) was determined as 11 µM; in experiment [2] (low cell density), 184 nM.

In the case of `COc1ccc(Nc2nc(Nc3ccc4oc(CN(C)C)cc4c3)ncc2F)cc1Cl` [Compound R926978], the IC50 in experiment [1] (low cell density) came to 18 µM; in experiment [2] (low cell density), 995 nM.

In the case of `COc1ccc(Nc2nc(Nc3cccc(OCC(=O)NCC(O)CO)c3)ncc2F)cc1Cl` (racemic) [Compound R926964], the IC50 in experiment [1] (low cell density) is greater than 10 µM; in experiment [2] (low cell density), 368 nM.

Consider `CC(C)(C)OC(=O)NC1CCOc2ccc(Nc3nc(Nc4ccc5cn[nH]c5c4)ncc3F)cc21` (racemic) [Compound R950422], for which the IC50 in experiment [1] (low cell density) was determined as 6.53 µM; in experiment [2] (low cell density) it was 475 nM.

Turning to `COc1c(Cl)cc(Nc2ncc(F)c(Nc3ccc4c(c3)NC(=O)[C@@H](C)O4)n2)cc1Cl` [Compound R908947], the IC50 in experiment [1] (low cell density) was greater than 10 µM; in experiment [2] (low cell density), 496 nM.

Consider `CCN(CC)CCCNc1ncc(F)c(Nc2ccc3c(c2)C(=O)NC(=O)C3(C)C)n1` [Compound R950472], for which the IC50 was greater than 10 µM in experiment [1] (low cell density) and 6950 nM in experiment [2] (low cell density).
